One assay has as its target T1, PTK2 (Homo sapiens, UniProt Q05397).
T1 construct: purchased Invitrogen PV3832
The experiment in a line: PTK2 Enzyme Test (DELFIA assay, poly-Glu-Tyr substrate). The class given is biochemical. As to conditions: active PTK2 enzyme, 50 μM ATP in ATP Mix, 1 h pre-incubation. Put shortly: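 Active PTK2 (0.01 μg/well) pre-incubated 1 h at RT with compound, then reacted 1 h with 50 μM ATP (in ATP mix) and poly(Glu,Tyr) 4:1 substrate, 2% DMSO final, pH 7.5. Biotinylated product captured on streptavidin, detected by Eu-PY20 time-resolved fluorescence; IC50 by sigmoidal fit, variable Hill slope.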

In assay [1] the target is T2, PTK2-phosphorylation at tyrosine 397 (pY397) (Homo sapiens, UniProt Q05397).
T2 construct: endogenous in cells; host or cells: PC-3 (ATCC CRL-1435)
Briefly: Phospho-PTK2 (pY397) Assay in PC-3 cells. It counts as cell-based. As to conditions: PC-3 prostate carcinoma cells, 2 h incubation; read-out: PC3pPTK2 Y397 EC50. Put shortly:
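PC-3 cells (2×10^4/well, F12K + 10% FCS) exposed to compound (about 0.8 nM–50 μM, 1% DMSO final) for 2 h at 37 °C. Then formaldehyde-fixed and immunostained with anti-pY397 PTK2 (total PTK2 control) and an HRP secondary. EC50 from sigmoidal fit with variable Hill slope.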

The record followed here is patent US8377943B2, “2,4-diaminopyrimidine derivates as PTK2-inhibitors for the treatment of abnormal cell growth” (Boehringer Ingelheim International GmbH, priority 2008, dated 2013).

T1 sequence (Q05397 whole entry): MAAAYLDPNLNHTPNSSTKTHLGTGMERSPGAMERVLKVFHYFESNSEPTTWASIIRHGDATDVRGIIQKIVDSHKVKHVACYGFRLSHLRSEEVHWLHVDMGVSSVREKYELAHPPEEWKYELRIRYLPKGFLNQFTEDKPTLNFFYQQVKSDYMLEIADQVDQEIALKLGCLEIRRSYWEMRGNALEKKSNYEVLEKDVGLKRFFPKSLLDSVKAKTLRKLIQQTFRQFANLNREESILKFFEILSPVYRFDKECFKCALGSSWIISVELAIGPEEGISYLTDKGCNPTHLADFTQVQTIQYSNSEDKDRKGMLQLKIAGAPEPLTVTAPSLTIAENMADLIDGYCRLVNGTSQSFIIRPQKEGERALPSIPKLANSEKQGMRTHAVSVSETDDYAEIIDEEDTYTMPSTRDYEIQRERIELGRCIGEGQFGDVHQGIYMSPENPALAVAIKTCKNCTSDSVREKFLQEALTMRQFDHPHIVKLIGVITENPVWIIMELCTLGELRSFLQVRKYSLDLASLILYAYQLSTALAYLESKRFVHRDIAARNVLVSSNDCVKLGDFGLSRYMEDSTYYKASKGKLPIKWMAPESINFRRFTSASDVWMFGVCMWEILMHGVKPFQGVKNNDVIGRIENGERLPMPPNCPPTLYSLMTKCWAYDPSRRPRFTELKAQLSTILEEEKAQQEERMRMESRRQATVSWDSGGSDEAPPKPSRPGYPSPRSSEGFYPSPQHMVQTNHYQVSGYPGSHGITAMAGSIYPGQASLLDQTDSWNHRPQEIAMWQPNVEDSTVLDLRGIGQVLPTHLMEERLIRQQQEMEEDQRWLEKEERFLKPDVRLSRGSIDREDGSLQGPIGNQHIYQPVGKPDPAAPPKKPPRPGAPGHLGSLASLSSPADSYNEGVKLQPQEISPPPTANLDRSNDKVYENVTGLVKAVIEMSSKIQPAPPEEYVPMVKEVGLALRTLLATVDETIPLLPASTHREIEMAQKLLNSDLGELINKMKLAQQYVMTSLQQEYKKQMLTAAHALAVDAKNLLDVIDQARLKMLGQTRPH
T2 sequence (Q05397 whole entry): as above

For orientation: IC50 means the concentration that gives 50% inhibition. The low end stands for greater potency, the high end for weaker potency. Broadly, the EC50 is the concentration that produces a half-maximal response. Consider `COc1cc(C(=O)NC2CCC(N3CCN(CC4CC4)CC3)CC2)c(C)cc1Nc1ncc(C(F)(F)F)c(NCc2ccc(C)cc2N(C)S(C)(=O)=O)n1` (centres unmarked) [Example 107], for which half-maximal inhibition at PTK2 (IC50) was put at 4 nM. Moreover, the EC50 in assay [1] was found to be 2 nM.
For `COc1cc(C(=O)N(C)C2CCN(C)CC2)ccc1Nc1ncc(C(F)(F)F)c(NCc2ccc(C)cc2N(C)S(C)(=O)=O)n1` [Example 108], in that order: 2 nM and 2 nM.
The compound `COc1cc(CNC2CCCCC2)ccc1Nc1ncc(C(F)(F)F)c(NCc2ccc(C)cc2N(C)S(C)(=O)=O)n1` [Example 109] registered a half-maximal inhibitory concentration (IC50) against PTK2 of 2 nM. Further, the EC50 in assay [1] came to 2 nM.
With `COc1cc(C(=O)NC2CCN(C)CC2)ccc1Nc1ncc(C(F)(F)F)c(NCc2ccc(Cl)cc2N(C)S(C)(=O)=O)n1` [Example 111], the half-maximal inhibitory concentration (IC50) against PTK2 was determined as 1 nM. In addition, the EC50 in assay [1] came to 3 nM.
On the same counts, the results for `COc1cc(N2CCN(C3CCN(C)CC3)CC2)ccc1Nc1ncc(C(F)(F)F)c(NCc2ccc(C)cc2N(C)S(C)(=O)=O)n1` [Example 112] are 2 nM and 3 nM.
On the same counts, the results for `COc1cc(C(=O)NC(C)(C)C)c(F)cc1Nc1ncc(C(F)(F)F)c(NCc2ccc(C)cc2N(C)S(C)(=O)=O)n1` [Example 113] are 5 nM and 3 nM.
On to `COc1cc(C(=O)N[C@H]2CC[C@H](N3C[C@@H](C)O[C@@H](C)C3)CC2)ccc1Nc1ncc(C(F)(F)F)c(NCc2ccc(C)cc2N(C)S(C)(=O)=O)n1` [Example 114], for which half-maximal inhibition on PTK2 (IC50) was put at 4 nM. In addition, in assay [1], the EC50 was 3 nM.
For `CCCNC(=O)c1ccc(Nc2ncc(C(F)(F)F)c(NCc3ccc(F)cc3N(C)S(C)(=O)=O)n2)c(OC)c1` [Example 115], in that order: 5 nM and 3 nM.
The compound `COc1cc(C(=O)N[C@@H]2CCCN(C3COC3)C2)ccc1Nc1ncc(C(F)(F)F)c(NCc2ccc(C)cc2N(C)S(C)(=O)=O)n1` [Example 116] came in with an IC50 against PTK2 of 3 nM. Besides, the EC50 in assay [1] stood at 3 nM.
At PTK2, `CC(=O)Nc1ccc(Nc2ncc(C(F)(F)F)c(NCc3ccc(C)cc3N(C)S(C)(=O)=O)n2)cc1C` [Example 117] gave an IC50 of 0.85 nM. Besides, the 50% effective concentration (EC50) in assay [1] is 3 nM.
For `COc1ccc(CNc2nc(Nc3ccc(NC(C)=O)c(C)c3)ncc2C(F)(F)F)c(N(C)S(C)(=O)=O)c1` [Example 118], in that order: 1 nM and 3 nM.
In turn, `COc1cc(C(=O)N[C@H]2CCN(C)C[C@H]2F)ccc1Nc1ncc(C(F)(F)F)c(NCc2ccc(C)cc2N(C)S(C)(=O)=O)n1` [Example 119] gave an IC50 at PTK2 of 3 nM. The half-maximal effective concentration (EC50) in assay [1] was 3 nM.
Turning to `COc1cc(C(=O)N[C@H]2CCN(C)C2)c(Cl)cc1Nc1ncc(C(F)(F)F)c(NCc2ccc(C)cc2N(C)S(C)(=O)=O)n1` [Example 120], the IC50 against PTK2 amounted to 3 nM. In addition, in assay [1], the EC50 is 3 nM.
On PTK2, `CCc1cc(C(=O)NC)ccc1Nc1ncc(C(F)(F)F)c(NCc2ccc(C)cc2N(C)S(C)(=O)=O)n1` [Example 121] came in with an IC50 of 2 nM. Moreover, in assay [1], the EC50 stood at 3 nM.
On the same counts, the results for `CCc1cc(C(=O)NOC)ccc1Nc1ncc(C(F)(F)F)c(NCc2ccc(C)cc2N(C)S(C)(=O)=O)n1` [Example 122] are 2 nM and 3 nM.
On the same counts, the results for `COc1cc(C(=O)N(C)C)c(C)cc1Nc1ncc(C(F)(F)F)c(NCc2ccc(C)cc2N(C)S(C)(=O)=O)n1` [Example 123] are 9 nM and 3 nM.
`COC(=O)Nc1cc(OC)c(Nc2ncc(C(F)(F)F)c(NCc3ccc(C)cc3N(C)S(C)(=O)=O)n2)cc1C` [Example 124] registered an IC50 on PTK2 of 5 nM. For the same compound, the EC50 in assay [1] came to 3 nM.
In the case of `COC(=O)Nc1cc(OC)c(Nc2ncc(C(F)(F)F)c(NCc3ccc(OC)cc3N(C)S(C)(=O)=O)n2)cc1C` [Example 125], at PTK2, inhibition was half-maximal at 5 nM (IC50). The EC50 in assay [1] stood at 3 nM.
On PTK2, `COC(=O)Nc1cc(OC)c(Nc2ncc(C(F)(F)F)c(NCc3ccc(F)cc3N(C)S(C)(=O)=O)n2)cc1C` [Example 126] came in with an IC50 of 6 nM. The EC50 in assay [1] was determined as 3 nM.
